In the NIST ThermoML archive (doi:10.1016/j.jct.2018.03.013):
Numbers after ± are expanded uncertainties.

Assay: xn = mol fraction of the nth substance listed
Settings: 100 kPa, Liquid; for speed of sound: Frequency=3 MHz, Linear variable-path acoustic interferometer; for mass density: Pycnometric method

## C=C(C)C(=O)OC [methyl methacrylate] + CC#N
293.15 K, x2 = 0
  speed of sound: 1200.5 ± 1.6 m/s
  mass density: 943.38 ± 1 kg/m3
293.15 K, x2 = 0.0688
  speed of sound: 1207.5 ± 1.6 m/s
  mass density: 938.34 ± 1 kg/m3
293.15 K, x2 = 0.1376
  speed of sound: 1214.3 ± 1.6 m/s
  mass density: 932.76 ± 1 kg/m3
293.15 K, x2 = 0.1957
  speed of sound: 1220 ± 1.6 m/s
  mass density: 927.6 ± 1 kg/m3
293.15 K, x2 = 0.2716
  speed of sound: 1227.3 ± 1.6 m/s
  mass density: 920.18 ± 1 kg/m3
293.15 K, x2 = 0.3344
  speed of sound: 1233.2 ± 1.6 m/s
  mass density: 913.41 ± 1 kg/m3
293.15 K, x2 = 0.4135
  speed of sound: 1240.5 ± 1.6 m/s
  mass density: 903.99 ± 1 kg/m3
293.15 K, x2 = 0.4916
  speed of sound: 1247.5 ± 1.6 m/s
  mass density: 893.58 ± 1 kg/m3
293.15 K, x2 = 0.5649
  speed of sound: 1254.2 ± 1.6 m/s
  mass density: 882.66 ± 1 kg/m3
293.15 K, x2 = 0.6386
  speed of sound: 1261 ± 1.6 m/s
  mass density: 870.38 ± 1 kg/m3
293.15 K, x2 = 0.7084
  speed of sound: 1267.7 ± 1.6 m/s
  mass density: 857.36 ± 1 kg/m3
293.15 K, x2 = 0.7927
  speed of sound: 1276.4 ± 1.6 m/s
  mass density: 839.5 ± 1 kg/m3
293.15 K, x2 = 0.855
  speed of sound: 1283.5 ± 1.6 m/s
  mass density: 824.53 ± 1 kg/m3
293.15 K, x2 = 0.9073
  speed of sound: 1290.3 ± 1.6 m/s
  mass density: 810.58 ± 1 kg/m3
293.15 K, x2 = 0.9497
  speed of sound: 1296.3 ± 1.6 m/s
  mass density: 798.21 ± 1 kg/m3
298.15 K, x2 = 0
  speed of sound: 1183.6 ± 1.6 m/s
  mass density: 937.64 ± 1 kg/m3
298.15 K, x2 = 0.0688
  speed of sound: 1190.6 ± 1.6 m/s
  mass density: 932.64 ± 1 kg/m3
298.15 K, x2 = 0.1376
  speed of sound: 1197.2 ± 1.6 m/s
  mass density: 927.09 ± 1 kg/m3
298.15 K, x2 = 0.1957
  speed of sound: 1202.7 ± 1.6 m/s
  mass density: 921.95 ± 1 kg/m3
298.15 K, x2 = 0.2716
  speed of sound: 1209.7 ± 1.6 m/s
  mass density: 914.56 ± 1 kg/m3
298.15 K, x2 = 0.3344
  speed of sound: 1215.3 ± 1.6 m/s
  mass density: 907.81 ± 1 kg/m3
298.15 K, x2 = 0.4135
  speed of sound: 1222.3 ± 1.6 m/s
  mass density: 898.42 ± 1 kg/m3
298.15 K, x2 = 0.4916
  speed of sound: 1229 ± 1.6 m/s
  mass density: 888.04 ± 1 kg/m3
298.15 K, x2 = 0.5649
  speed of sound: 1235.3 ± 1.6 m/s
  mass density: 877.15 ± 1 kg/m3
298.15 K, x2 = 0.6386
  speed of sound: 1241.7 ± 1.6 m/s
  mass density: 864.91 ± 1 kg/m3
298.15 K, x2 = 0.7084
  speed of sound: 1248 ± 1.6 m/s
  mass density: 851.92 ± 1 kg/m3
298.15 K, x2 = 0.7927
  speed of sound: 1256.2 ± 1.6 m/s
  mass density: 834.09 ± 1 kg/m3
298.15 K, x2 = 0.855
  speed of sound: 1263 ± 1.6 m/s
  mass density: 819.15 ± 1 kg/m3
298.15 K, x2 = 0.9073
  speed of sound: 1269.3 ± 1.6 m/s
  mass density: 805.23 ± 1 kg/m3
298.15 K, x2 = 0.9497
  speed of sound: 1275 ± 1.6 m/s
  mass density: 792.88 ± 1 kg/m3
303.15 K, x2 = 0
  speed of sound: 1168.5 ± 1.6 m/s
  mass density: 931.9 ± 1 kg/m3
303.15 K, x2 = 0.0688
  speed of sound: 1175.5 ± 1.6 m/s
  mass density: 926.94 ± 1 kg/m3
303.15 K, x2 = 0.1376
  speed of sound: 1182 ± 1.6 m/s
  mass density: 921.42 ± 1 kg/m3
303.15 K, x2 = 0.1957
  speed of sound: 1187.4 ± 1.6 m/s
  mass density: 916.3 ± 1 kg/m3
303.15 K, x2 = 0.2716
  speed of sound: 1194.1 ± 1.6 m/s
  mass density: 908.94 ± 1 kg/m3
303.15 K, x2 = 0.3344
  speed of sound: 1199.5 ± 1.6 m/s
  mass density: 902.21 ± 1 kg/m3
303.15 K, x2 = 0.4135
  speed of sound: 1206.2 ± 1.6 m/s
  mass density: 892.85 ± 1 kg/m3
303.15 K, x2 = 0.4916
  speed of sound: 1212.6 ± 1.6 m/s
  mass density: 882.5 ± 1 kg/m3
303.15 K, x2 = 0.5649
  speed of sound: 1218.6 ± 1.6 m/s
  mass density: 871.64 ± 1 kg/m3
303.15 K, x2 = 0.6386
  speed of sound: 1224.8 ± 1.6 m/s
  mass density: 859.43 ± 1 kg/m3
303.15 K, x2 = 0.7084
  speed of sound: 1230.8 ± 1.6 m/s
  mass density: 846.47 ± 1 kg/m3
303.15 K, x2 = 0.7927
  speed of sound: 1238.7 ± 1.6 m/s
  mass density: 828.68 ± 1 kg/m3
303.15 K, x2 = 0.855
  speed of sound: 1245.1 ± 1.6 m/s
  mass density: 813.77 ± 1 kg/m3
303.15 K, x2 = 0.9073
  speed of sound: 1251.2 ± 1.6 m/s
  mass density: 799.87 ± 1 kg/m3
303.15 K, x2 = 0.9497
  speed of sound: 1256.6 ± 1.6 m/s
  mass density: 787.55 ± 1 kg/m3
308.15 K, x2 = 0
  speed of sound: 1152.6 ± 1.6 m/s
  mass density: 926.16 ± 1 kg/m3
308.15 K, x2 = 0.0688
  speed of sound: 1159.6 ± 1.6 m/s
  mass density: 921.23 ± 1 kg/m3
308.15 K, x2 = 0.1376
  speed of sound: 1166 ± 1.6 m/s
  mass density: 915.74 ± 1 kg/m3
308.15 K, x2 = 0.1957
  speed of sound: 1171.2 ± 1.6 m/s
  mass density: 910.65 ± 1 kg/m3
308.15 K, x2 = 0.2716
  speed of sound: 1177.8 ± 1.6 m/s
  mass density: 903.31 ± 1 kg/m3
308.15 K, x2 = 0.3344
  speed of sound: 1183 ± 1.6 m/s
  mass density: 896.61 ± 1 kg/m3
308.15 K, x2 = 0.4135
  speed of sound: 1189.5 ± 1.6 m/s
  mass density: 887.27 ± 1 kg/m3
308.15 K, x2 = 0.4916
  speed of sound: 1195.7 ± 1.6 m/s
  mass density: 876.95 ± 1 kg/m3
308.15 K, x2 = 0.5649
  speed of sound: 1201.5 ± 1.6 m/s
  mass density: 866.13 ± 1 kg/m3
308.15 K, x2 = 0.6386
  speed of sound: 1207.4 ± 1.6 m/s
  mass density: 853.94 ± 1 kg/m3
308.15 K, x2 = 0.7084
  speed of sound: 1213.2 ± 1.6 m/s
  mass density: 841.01 ± 1 kg/m3
308.15 K, x2 = 0.7927
  speed of sound: 1220.8 ± 1.6 m/s
  mass density: 823.27 ± 1 kg/m3
308.15 K, x2 = 0.855
  speed of sound: 1227.1 ± 1.6 m/s
  mass density: 808.39 ± 1 kg/m3
308.15 K, x2 = 0.9073
  speed of sound: 1233 ± 1.6 m/s
  mass density: 794.51 ± 1 kg/m3
308.15 K, x2 = 0.9497
  speed of sound: 1238.2 ± 1.6 m/s
  mass density: 782.21 ± 1 kg/m3
313.15 K, x2 = 0
  speed of sound: 1135.4 ± 1.6 m/s
  mass density: 920.42 ± 1 kg/m3
313.15 K, x2 = 0.0688
  speed of sound: 1142.4 ± 1.6 m/s
  mass density: 915.52 ± 1 kg/m3
313.15 K, x2 = 0.1376
  speed of sound: 1148.7 ± 1.6 m/s
  mass density: 910.06 ± 1 kg/m3
313.15 K, x2 = 0.1957
  speed of sound: 1153.9 ± 1.6 m/s
  mass density: 904.99 ± 1 kg/m3
313.15 K, x2 = 0.2716
  speed of sound: 1160.3 ± 1.6 m/s
  mass density: 897.68 ± 1 kg/m3
313.15 K, x2 = 0.3344
  speed of sound: 1165.6 ± 1.6 m/s
  mass density: 891 ± 1 kg/m3
313.15 K, x2 = 0.4135
  speed of sound: 1172 ± 1.6 m/s
  mass density: 881.69 ± 1 kg/m3
313.15 K, x2 = 0.4916
  speed of sound: 1178.1 ± 1.6 m/s
  mass density: 871.4 ± 1 kg/m3
313.15 K, x2 = 0.5649
  speed of sound: 1183.8 ± 1.6 m/s
  mass density: 860.61 ± 1 kg/m3
313.15 K, x2 = 0.6386
  speed of sound: 1189.5 ± 1.6 m/s
  mass density: 848.45 ± 1 kg/m3
313.15 K, x2 = 0.7084
  speed of sound: 1195.2 ± 1.6 m/s
  mass density: 835.55 ± 1 kg/m3
313.15 K, x2 = 0.7927
  speed of sound: 1202.7 ± 1.6 m/s
  mass density: 817.85 ± 1 kg/m3
313.15 K, x2 = 0.855
  speed of sound: 1208.9 ± 1.6 m/s
  mass density: 803 ± 1 kg/m3
313.15 K, x2 = 0.9073
  speed of sound: 1214.7 ± 1.6 m/s
  mass density: 789.15 ± 1 kg/m3
313.15 K, x2 = 0.9497
  speed of sound: 1219.8 ± 1.6 m/s
  mass density: 776.87 ± 1 kg/m3
318.15 K, x2 = 0
  speed of sound: 1118.3 ± 1.6 m/s
  mass density: 914.67 ± 1 kg/m3
318.15 K, x2 = 0.0688
  speed of sound: 1125.1 ± 1.6 m/s
  mass density: 909.81 ± 1 kg/m3
318.15 K, x2 = 0.1376
  speed of sound: 1131.5 ± 1.6 m/s
  mass density: 904.38 ± 1 kg/m3
318.15 K, x2 = 0.1957
  speed of sound: 1136.6 ± 1.6 m/s
  mass density: 899.33 ± 1 kg/m3
318.15 K, x2 = 0.2716
  speed of sound: 1143.1 ± 1.6 m/s
  mass density: 892.05 ± 1 kg/m3
318.15 K, x2 = 0.3344
  speed of sound: 1148.2 ± 1.6 m/s
  mass density: 885.39 ± 1 kg/m3
318.15 K, x2 = 0.4135
  speed of sound: 1154.5 ± 1.6 m/s
  mass density: 876.11 ± 1 kg/m3
318.15 K, x2 = 0.4916
  speed of sound: 1160.5 ± 1.6 m/s
  mass density: 865.85 ± 1 kg/m3
318.15 K, x2 = 0.5649
  speed of sound: 1166.1 ± 1.6 m/s
  mass density: 855.09 ± 1 kg/m3
318.15 K, x2 = 0.6386
  speed of sound: 1171.8 ± 1.6 m/s
  mass density: 842.96 ± 1 kg/m3
318.15 K, x2 = 0.7084
  speed of sound: 1177.3 ± 1.6 m/s
  mass density: 830.09 ± 1 kg/m3
318.15 K, x2 = 0.7927
  speed of sound: 1184.6 ± 1.6 m/s
  mass density: 812.43 ± 1 kg/m3
318.15 K, x2 = 0.855
  speed of sound: 1190.7 ± 1.6 m/s
  mass density: 797.61 ± 1 kg/m3
318.15 K, x2 = 0.9073
  speed of sound: 1196.3 ± 1.6 m/s
  mass density: 783.79 ± 1 kg/m3
318.15 K, x2 = 0.9497
  speed of sound: 1201.4 ± 1.6 m/s
  mass density: 771.53 ± 1 kg/m3
